We go through 18 molecules from US20070179143A1 (priority 2003, published 2007).

For one series, the system named is A549. Description: Cytotoxicity test to cancer cell lines (SRB method), A549. As to conditions: Homo sapiens, A549, 48 h, read-out: Cytotoxicity ED50 A549.
The test system of the next series is SK-OV-3. The experiment in a line: Cytotoxicity test to cancer cell lines (SRB method), SK-OV-3. It is filed as cell-based. The note with it: Homo sapiens, SK-OV-3, 48 h, read-out: Cytotoxicity ED50 SK-OV-3.
In another series the test system is HCT-15. Description: Cytotoxicity test to cancer cell lines (SRB method), HCT-15. The note with it: Homo sapiens, HCT-15, 48 h, read-out: Cytotoxicity ED50 HCT15. In general terms: The SRB assay estimates cell density from bound dye.
The test system of the next series is SK-MEL-2. Description: Cytotoxicity test to cancer cell lines (SRB method), SK-MEL-2. It is filed as cell-based. The note with it: Homo sapiens, SK-MEL-2, 48 h, read-out: Cytotoxicity ED50 SK-MEL-2.
The subject of another series is MCF7. The experiment in a line: Cytotoxicity test to cancer cell lines (SRB method), MCF7. As to conditions: read-out: Cytotoxicity ED50 MCF-7, MCF-7, 48 hours.

Method for A549: (§1) Cytotoxicity to A549 (Korea Research Institute of Chemical Technology), SK-OV-3 (Korea Research Institute of Chemical Technology), SK-MEL-2 (Korea Research Institute of Chemical Technology), HCT-15 (Korea Research Institute of Chemical Technology) and MCF7 (Korean Cell Line Bank, Seoul National University School of medicine) cells was measured by Sulforhodamin-B (SRB) method (1989, National Cancer Institute (NCI)) which was developed for the measurement of in vitro anticancer activity of a drug. Cells were separated using 0.25% trypsin-EDTA solution, leading to the preparation of a cell suspension by 5×10^318 2×10^4 cells/well. Then, the suspension was distributed into a 96 well plate by 100 μl/well, which was cultured in a 37° C., 5% CO2 incubator for 24 hours. Compounds prepared in examples of the present invention were used as a sample. Precisely, the compound was dissolved in dimethylsulfoxide and diluted with RPMI 1640 medium before being used as a sample. The final concentration of the sample used varied ranging 1 μM˜0.00001 μM. The medium was removed from the 96 well plate and then diluted sample solution was added by 100 μl/well, followed by further culture in a 37° C., 5% CO2 incubator for 48 hours. Tz (time zero) plate was collected from the point of adding the sample. Upon completing the culture, the medium was removed from each well along with Tz plate, then 10% trichloroacetic acid (TCA) was added by 100 μl/well. The plate was left at 4° C. for 1 hour to let cells be fixed on the floor of the plate. After cells were fixed completely, the plate was washed with water 5-6 times to remove the remaining trichloroacetic acid solution completely and moisture was completely dried at room temperature. 0.4% Sulforhodamine-B was dissolved in 1% acetic acid solution to prepare a staining solution. Cells were stained for 30 minutes with a dye added by 100 μl to each well of the completely dried plate. Then, the plate was washed with 1% acetic acid solution 5-6 times to remove sulforhodamine-B remained uncombined with cells. Then, the plate was dried at room temperature. 10 mM Tris solution was added by 100 μ/well thereto to dissolve the dye, and optical density (OD) was measured at 520 nm with a micro plate reader.
(§2) ED50 (concentration that inhibits cancer cell growth 50%, 5.0% effective dose, nM/ml) of the sample to cancer cell was calculated as follows. OD value at the point of beginning the culture with the sample was determined as Tz (time zero) value. OD value of a well to be cultured without the sample was determined as a control value (C). OD value of a well pretreated with the sample was determined as experimental value (T). After calculating Tz, C and T, cytotoxicity of the sample was measured by the below <Mathematical Formula 1>. T≦Tz, (T−Tz)/(C−Tz)×100 T>Tz, (T−Tz)/Tz×10,0 <Mathematical Formula 1>
(§3) ED50, the concentration that can inhibit cancer cell growth by 50%, was calculated by using a regression analysis of lotus program based on the degree of cytotoxicity obtained by the <Mathematical Formula 1>.
Method for HCT-15: as §1, §2, §3
Method for MCF7: as §1, §2, §3

Regarding `COc1cc2c(c(OC)c1OC)-c1ccc(SC)c(=O)cc1[C@@H](NC(=O)c1ccc(CO[N+](=O)[O-])o1)CC2` [Example 2, 5-nitrooxymethyl-furan-2-carboxylic acid-[(7S)-1,2,3-trimethoxy-10-methylsulfanyl-9-oxo-5,6,7,9-tetrahydro-benzo[a]heptalen-7-yl]-amide], the EC50 amounted to 15.8 nM in the series with A549; 9.3 nM in the series with SK-OV-3; 2.3 nM in the series with HCT-15; 5.4 nM in the series on SK-MEL-2; 2.9 nM in the series with MCF7.

As to `COc1c(OC(C)C)cc2c(c1OC)-c1ccc(SC)c(=O)cc1[C@@H](NC(=O)c1cccc(CO[N+](=O)[O-])c1)CC2` [Example 3, N-[(7S)-3-isopropoxy-1,2-dimethoxy-10-methylsulfanyl-9-oxo-5,6,7,9-tetrahydro-benzo[a]heptalen-7-yl]-3-nitrooxymethyl-benzamide], the EC50 worked out at 2.4 nM in the series with A549; 4 nM in the series on SK-OV-3; 4.8 nM in the series with HCT-15; 1 nM with SK-MEL-2; 2.3 nM in the series on MCF7.

Regarding `CCOc1cc2c(c(OC)c1OC)-c1ccc(SC)c(=O)cc1[C@@H](NC(=O)c1cccc(CO[N+](=O)[O-])c1)CC2` [Example 4, N-[(7S)-3-ethoxy-1,2-dimethoxy-10-methylsulfanyl-9-oxo-5,6,7,9-tetrahydro-benzo[a]heptalen-7-yl]-3-nitrooxymethyl-benzamide], the EC50 in the series with A549 came to 0.01 nM; in the series with SK-OV-3 it was 0.01 nM; in the series on HCT-15 it was 0.03 nM; in the series with SK-MEL-2, 0.01 nM; in the series with MCF7, 0.01 nM.

Take `COc1cc2c(c(OC)c1OC)-c1ccc(SC)c(=O)cc1[C@@H](NC(=O)c1ccc(CO[N+](=O)[O-])s1)CC2` [Example 6, 5-nitrooxymethyl-thiophene-2-carboxylic acid-[(7S)-1,2,3-trimethoxy-10-methylsulfanyl-9-oxo-5,6,7,9-tetrahydro-benzo[a]heptalen-7-yl]-amide]: the EC50 was found to be 0.7 nM in the series on A549; 0.37 nM in the series with SK-OV-3; 0.27 nM with HCT-15; 0.08 nM in the series with SK-MEL-2; 0.16 nM in the series with MCF7.

On to `COc1c(OC2CCCC2)cc2c(c1OC)-c1ccc(SC)c(=O)cc1[C@@H](NC(=O)c1cccc(CO[N+](=O)[O-])c1)CC2` [Example 7, N-[(7S)-3-cyclopentyloxy-1,2-dimethoxy-10-methylsulfanyl-9-oxo-5,6,7,9-tetrahydro-benzo[a]heptalen-7-yl]-3-nitrooxymethyl-benzamide], for which the EC50 in the series with A549, in the series with SK-OV-3, in the series with HCT-15, in the series with SK-MEL-2 and in the series with MCF7 was above 50 nM each time.

`COc1c(OC(C)C)cc2c(c1OC)-c1ccc(SC)c(=O)cc1[C@@H](NC(=O)c1cccc(CO[N+](=O)[O-])c1F)CC2` [Example 9, 2-fluoro-N-[(7S)-3-isopropoxy-1,2-dimethoxy-10-methylsulfanyl-9-oxo-5,6,7,9-tetrahydro-benzo[a]heptalen-7-yl]-3-nitrooxymethyl-benzamide]: the EC50 in the series with A549 came to 0.49 nM; in the series with SK-OV-3 it was 0.34 nM; in the series with HCT-15, 0.64 nM; in the series with SK-MEL-2, 0.22 nM; with MCF7, 0.13 nM.

In the case of `COc1cc2c(c(OC)c1OC)-c1ccc(SC)c(=O)cc1[C@@H](NC(=O)c1cccc(CO[N+](=O)[O-])c1F)CC2` [Example 10, 2-fluoro-3-nitrooxymethyl-N-[(7S)-1,2,3-trimethoxy-10-methylsulfanyl-9-oxo-5,6,7,9-tetrahydro-benzo[a]heptalen-7-yl]-benzamide], the EC50 in the series on A549 was found to be 0.28 nM; with SK-OV-3, 0.23 nM; in the series on HCT-15, 0.39 nM; in the series with SK-MEL-2 it was 0.12 nM; in the series with MCF7, 0.09 nM.

For the molecule `COc1c(OC2CCCC2)cc2c(c1OC)-c1ccc(SC)c(=O)cc1[C@@H](NC(=O)c1cccc(CO[N+](=O)[O-])c1F)CC2` [Example 11, N-[(7S)-3-cyclopentyloxy-1,2-dimethoxy-10-methylsulfanyl-9-oxo-5,6,7,9-tetrahydro-benzo[a]heptalen-7-yl]-2-fluoro-3-nitrooxymethyl-benzamide], the EC50 in the series on A549 was above 50 nM; in the series with SK-OV-3, above 50 nM; in the series with HCT-15, above 50 nM; in the series on SK-MEL-2, above 50 nM; in the series on MCF7 it was 39 nM.

Regarding `CCOc1cc2c(c(OC)c1OC)-c1ccc(SC)c(=O)cc1[C@@H](NC(=O)c1cc(F)cc(CO[N+](=O)[O-])c1)CC2` [Example 13, N-[(7S)-3-ethoxy-1,2-dimethoxy-10-methylsulfanyl-9-oxo-5,6,7,9-tetrahydro-benzo[a]heptalen-7-yl)-3-fluoro-5-nitrooxymethyl-benzamide], the EC50 with A549 came to 0.13 nM; in the series on SK-OV-3 it was 0.18 nM; in the series on HCT-15 it was 0.11 nM; in the series with SK-MEL-2, 0.04 nM; in the series on MCF7 it was 0.02 nM.

Take `COc1c(OC(C)C)cc2c(c1OC)-c1ccc(SC)c(=O)cc1[C@@H](NC(=O)c1cc(F)cc(CO[N+](=O)[O-])c1)CC2` [Example 14, 3-fluoro-N-[(7S)-3-isopropoxy-1,2-dimethoxy-10-methylsulfanyl-9-oxo-5,6,7,9-tetrahydro-benzo[a]heptalen-7-yl]-5-nitrooxymethyl-benzamide]: the EC50 in the series on A549 worked out at 28.2 nM; with SK-OV-3 it was 30.6 nM; in the series with HCT-15 it was 9.9 nM; in the series on SK-MEL-2, 32.8 nM; in the series on MCF7, 11.2 nM.

Consider `COc1c(OC2CCCC2)cc2c(c1OC)-c1ccc(SC)c(=O)cc1[C@@H](NC(=O)c1cc(F)cc(CO[N+](=O)[O-])c1)CC2` [Example 15, N-[(7S)-3-cyclopentyloxy-1,2-dimethoxy-10-methylsulfanyl-9-oxo-5,6,7,9-tetrahydro-benzo[a]heptalen-7-yl]-3-fluoro-5-nitrooxymethyl-benzamide], for which the EC50 with A549 was 30.2 nM; with SK-OV-3, above 50 nM; in the series on HCT-15 it was 23.4 nM; in the series with SK-MEL-2, 22.5 nM; with MCF7, 18.8 nM.

For the molecule `COc1cc2c(c(OC)c1OC)-c1ccc(SC)c(=O)cc1[C@@H](NC(=O)c1cc(CO[N+](=O)[O-])ccc1F)CC2` [Example 17, 2-fluoro-5-nitrooxymethyl-N-[(7S)-1,2,3-trimethoxy-10-methylsulfanyl-9-oxo-5,6,7,9-tetrahydro-benzo[a]heptalen-7-yl]-benzamide], the EC50 with A549 was 0.21 nM; in the series with SK-OV-3, 0.19 nM; in the series with HCT-15 it was 0.19 nM; in the series on SK-MEL-2, 0.17 nM; with MCF7 it was 0.08 nM.

Regarding `COc1cc2c(c(OC)c1OC)-c1ccc(SC)c(=O)cc1[C@@H](NC(=O)c1cc(CO[N+](=O)[O-])cc(CO[N+](=O)[O-])c1)CC2` [Example 19, 3,5-bis-nitrooxymethyl-N-[(7S)-1,2,3-trimethoxy-10-methylsulfanyl-9-oxo-5,6,7,9-tetrahydro-benzo[a]heptalen-7-yl]-benzamide], the EC50 with A549 is 23.5 nM; in the series with SK-OV-3, 34.8 nM; in the series on HCT-15, 10.1 nM; in the series on SK-MEL-2, 31 nM; in the series with MCF7, 8.2 nM.

In the case of `COc1cc2c(c(OC)c1OC)-c1ccc(SC)c(=O)cc1[C@@H](NC(=O)c1ccc(CO[N+](=O)[O-])cc1O)CC2` [Example 20, 2-hydroxy-4-nitrooxymethyl-N-[(7S)-1,2,3-trimethoxy-10-methylsulfanyl-9-oxo-5,6,7,9-tetrahydro-benzo[a]heptalen-7-yl]-benzamide], the EC50 is 3.93 nM in the series on A549; 1.83 nM with SK-OV-3; 1.03 nM in the series with HCT-15; 2.47 nM with SK-MEL-2; 1.15 nM in the series with MCF7.

Turning to `COc1cc2c(c(OC)c1OC)-c1ccc(SC)c(=O)cc1[C@@H](NC(=O)c1cc(CO[N+](=O)[O-])cs1)CC2` [Example 21, 4-nitrooxymethyl-thiophene-2-carboxylic acid [(7S)-1,2,3-trimethoxy-10-methylsulfanyl-9-oxo-5,6,7,9-tetrahydro-benzo[a]heptalen-7-yl]-amide], the EC50 in the series with A549 stood at 0.97 nM; with SK-OV-3 it was 0.59 nM; in the series with HCT-15 it was 0.13 nM; in the series on SK-MEL-2, 0.29 nM; with MCF7, 0.1 nM.

With `COc1cc2c(c(OC)c1OC)-c1ccc(SC)c(=O)cc1[C@@H](NC(=O)c1sccc1CO[N+](=O)[O-])CC2` [Example 22, 3-nitrooxymethyl-thiophene-2-carboxylic acid [(7S)-1,2,3-trimethoxy-10-methylsulfanyl-9-oxo-5,6,7,9-tetrahydro-benzo[a]heptalen-7-yl]-amide], the EC50 in the series on A549 stood at 1.11 nM; with SK-OV-3, 1.41 nM; with HCT-15, 0.95 nM; with SK-MEL-2 it was 0.87 nM; with MCF7 it was 0.21 nM.

In the case of `COc1cc2c(c(OC)c1OC)-c1ccc(SC)c(=O)cc1[C@@H](NC(=O)Cc1cccc(CO[N+](=O)[O-])c1)CC2` [Example 23, 2-(3-nitrooxymethyl-phenyl)-N-[(7S)-1,2,3-trimethoxy-10-methylsulfanyl-9-oxo-5,6,7,9-tetrahydro-benzo[a]heptalen-7-yl]-acetamide], the EC50 in the series with A549 was found to be 5.4 nM; in the series on SK-OV-3, 5.6 nM; in the series on HCT-15, 3.4 nM; in the series with SK-MEL-2, 3.5 nM; with MCF7, 3.3 nM.

With `COc1cc2c(c(OC)c1OC)-c1ccc(SC)c(=O)cc1[C@@H](NC(=O)c1cccc(COC(=O)CCCO[N+](=O)[O-])c1)CC2` [Example 34, 4-nitrooxybutyric acid-3-[(7S)-1,2,3-trimethoxy-10-methylsulfanyl-9-oxo-5,6,7,9-tetrahydro-benzo[a]heptalen-7-yl-carbamoyl]-benzylester], the EC50 in the series on A549 was determined as 0.06 nM; in the series with SK-OV-3, 0.01 nM; in the series on HCT-15, 0.01 nM; in the series on SK-MEL-2 it was 0.01 nM; in the series with MCF7, 0.01 nM.
